Measurements published in patent US11267812B2 (Mirati Therapeutics, Inc., priority 2016, dated 2022).

Test system: Phospho-ERK in NCI-H358 cells expressing KRas G12C
Assay: Cellular inhibition of KRas G12C by Phospho-ERK measurement in NCI-H358 cells
Format: cell-based
Settings: Homo sapiens; NCI-H358 cells, 3 hours compound treatment; read-out: IC50 (pERK(Thr202/Tyr204) normalized with GAPDH)
How it was run: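 After 8–12 h attachment, NCI-H358 cells were treated with compounds for 3 h (0.5% DMSO final), fixed, methanol-permeabilized and immunostained. pERK(Thr202/Tyr204) was read by infrared imaging and normalized to GAPDH as percent of DMSO control. IC50 came from a 4-parameter fit.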

Compound | IC50
C=CC(=O)N1CCN(c2nc(OC(C)CCN(C)C)nc3c2CCN(c2cc(O)cc4ccccc24)C3)CC1 (stereo not drawn) [Example 21, 1-(4-(2-((4-(dimethylamino)butan-2-yl)oxy)-7-(3-hydroxynaphthalen-1-yl)-5,6,7,8-tetrahydropyrido[3,4-d]pyrimidin-4-yl)piperazin-1-yl)prop-2-en-1-one] | 1 to 1000 nM
C=CC(=O)N1CCN(c2nc(OC[C@@H]3CCCN3C)nc3c2CCN(c2ccc(F)c4ccccc24)C3)CC1CC#N (stereo partly drawn) [Example 246, 2-[4-[7-(4-fluoro-1-naphthyl)-2-[[(2S)-1-methylpyrrolidin-2-yl]methoxy]-6,8-dihydro-5H-pyrido[3,4-d]pyrimidin-4-yl]-1-prop-2-enoyl-piperazin-2-yl]acetonitrile] | 1 to 1000 nM
C=CC(=O)N1CCN(c2nc(OC[C@H]3CN(C)CCO3)nc3c2CCN(c2cccc4ccccc24)C3)CC1CC#N (stereo partly drawn) [Example 270, 2-(1-acryloyl-4-(2-(((R)-4-methylmorpholin-2-yl)methoxy)-7-(naphthalen-1-yl)-5,6,7,8-tetrahydropyrido[3,4-d]pyrimidin-4-yl)piperazin-2-yl)acetonitrile] | 1 to 1000 nM
C=CC(=O)N1CCN(c2nc(OCCN3CCCC[C@H]3C)nc3c2CCN(c2cc(O)cc4ccccc24)C3)CC1 [Example 97, (R)-1-(4-(7-(3-hydroxynaphthalen-1-yl)-2-(2-(2-methylpiperidin-1-yl)ethoxy)-5,6,7,8-tetrahydropyrido[3,4-d]pyrimidin-4-yl)piperazin-1-yl)prop-2-en-1-one] | 1 to 1000 nM
C=CC(=O)N1CCN(c2nc(OCCCN3CCN(C(C)=O)CC3)nc3c2CCN(c2cc(O)cc4ccccc24)C3)CC1 [Example 135, 1-[4-[2-[3-(4-acetylpiperazin-1-yl)propoxy]-7-(3-hydroxy-1-naphthyl)-6,8-dihydro-5H-pyrido[3,4-d]pyrimidin-4-yl]piperazin-1-yl]prop-2-en-1-one] | 1 to 1000 nM
C=CC(=O)N1CCN(c2nc(OCC(C)(C)N(C)C)nc3c2CCN(c2cccc4ccccc24)C3)CC1CC#N (stereo not drawn) [Example 269, 2-(1-acryloyl-4-(2-(2-(dimethylamino)-2-methylpropoxy)-7-(naphthalen-1-yl)-5,6,7,8-tetrahydropyrido[3,4-d]pyrimidin-4-yl)piperazin-2-yl)acetonitrile] | 1 to 1000 nM
C=CC(=O)N1CCN(c2nc(OC[C@@H]3CCCN3C)nc3c2CCN(c2cncc4ccccc24)C3)CC1CC#N (stereo partly drawn) [Example 260, 2-[4-[7-(4-isoquinolyl)-2-[[(2S)-1-methylpyrrolidin-2-yl]methoxy]-6,8-dihydro-5H-pyrido[3,4-d]pyrimidin-4-yl]-1-prop-2-enoyl-piperazin-2-yl]acetonitrile] | 1 to 1000 nM
C=CC(=O)N1CCN(c2nc(OC(C)CN(C)C)nc3c2CCN(c2cc(O)cc4ccccc24)C3)CC1 (stereo not drawn) [Example 11, 1-(4-(2-((1-(dimethylamino)propan-2-yl)oxy)-7-(3-hydroxynaphthalen-1-yl)-5,6,7,8-tetrahydropyrido[3,4-d]pyrimidin-4-yl)piperazin-1-yl)prop-2-en-1-one] | 1 to 1000 nM
C=CC(=O)N1CCN(c2nc(OCC3CCN(C)C3)nc3c2CCN(c2cc(O)cc4ccccc24)C3)CC1 (stereo not drawn) [Example 89, 1-(4-(7-(3-hydroxynaphthalen-1-yl)-2-((1-methylpyrrolidin-3-yl)methoxy)-5,6,7,8-tetrahydropyrido[3,4-d]pyrimidin-4-yl)piperazin-1-yl)prop-2-en-1-one] | 1 to 1000 nM
C=CC(=O)N1CCN(c2nc(O[C@@H](C)[C@@H]3CCCN3C)nc3c2CCN(c2cc(O)cc4ccccc24)C3)CC1 [Example 130, 1-(4-(7-(3-hydroxynaphthalen-1-yl)-2-((S)-1-((S)-1-methylpyrrolidin-2-yl)ethoxy)-5,6,7,8-tetrahydropyrido[3,4-d]pyrimidin-4-yl)piperazin-1-yl)prop-2-en-1-one] | 1 to 1000 nM
C=CC(=O)N1CCN(c2nc(OC[C@@H]3CCCN3C(C)C)nc3c2CCN(c2cc(O)cc4ccccc24)C3)CC1 [Example 145, 1-[4-[7-(3-hydroxy-1-naphthyl)-2-[[(2S)-1-isopropylpyrrolidin-2-yl]methoxy]-6,8-dihydro-5H-pyrido[3,4-d]pyrimidin-4-yl]piperazin-1-yl]prop-2-en-1-one] | 1 to 1000 nM
C=CC(=O)N1CCN(c2nc(OC[C@H]3CCCN3C)nc3c2CCN(c2cccc(F)c2C(F)(F)F)C3)C[C@@H]1CC#N [Example 274, 2-((S)-1-acryloyl-4-(7-(3-fluoro-2-(trifluoromethyl)phenyl)-2-(((R)-1-methylpyrrolidin-2-yl)methoxy)-5,6,7,8-tetrahydropyrido[3,4-d]pyrimidin-4-yl)piperazin-2-yl)acetonitrile] | 1 to 1000 nM
C=CC(=O)N1CCN(c2nc(OCCCN3CCN(C)CC3)nc3c2CCN(c2cc(O)cc4ccccc24)C3)CC1 [Example 82, 1-(4-(7-(3-hydroxynaphthalen-1-yl)-2-(3-(4-methylpiperazin-1-yl)propoxy)-5,6,7,8-tetrahydropyrido[3,4-d]pyrimidin-4-yl)piperazin-1-yl)prop-2-en-1-one] | 1 to 1000 nM
C=CC(=O)N1CCN(c2nc(OC[C@@H]3CCCN(C)C3)nc3c2CCN(c2cc(O)cc4ccccc24)C3)CC1 [Example 192, (R)-1-(4-(7-(3-hydroxynaphthalen-1-yl)-2-((1-methylpiperidin-3-yl)methoxy)-5,6,7,8-tetrahydropyrido[3,4-d]pyrimidin-4-yl)piperazin-1-yl)prop-2-en-1-one] | 1 to 1000 nM
C=CC(=O)N1CCN(c2nc(OC[C@@H]3CCCCN3C)nc3c2CCN(c2cc(O)cc4ccccc24)C3)CC1 [Example 196, (S)-1-(4-(7-(3-hydroxynaphthalen-1-yl)-2-((1-methylpiperidin-2-yl)methoxy)-5,6,7,8-tetrahydropyrido[3,4-d]pyrimidin-4-yl)piperazin-1-yl)prop-2-en-1-one] | 1 to 1000 nM
C=CC(=O)N1CCN(c2nc(OC[C@@H]3CCN(C)C3)nc3c2CCN(c2cc(O)cc4ccccc24)C3)CC1 [Example 110, (R)-1-(4-(7-(3-hydroxynaphthalen-1-yl)-2-((1-methylpyrrolidin-3-yl)methoxy)-5,6,7,8-tetrahydropyrido[3,4-d]pyrimidin-4-yl)piperazin-1-yl)prop-2-en-1-one] | 1 to 1000 nM
C=CC(=O)N1CCN(c2nc(OC[C@@H]3CCCN3CC)nc3c2CCN(c2cccc4ccccc24)C3)CC1CC#N (stereo partly drawn) [Example 233, 2-(1-acryloyl-4-(2-(((S)-1-ethylpyrrolidin-2-yl)methoxy)-7-(naphthalen-1-yl)-5,6,7,8-tetrahydropyrido[3,4-d]pyrimidin-4-yl)piperazin-2-yl)acetonitrile] | 1 to 1000 nM
C=CC(=O)N1CCN(c2nc(O[C@H](C)CN3CCCC3)nc3c2CCN(c2cc(O)cc4ccccc24)C3)CC1 [Example 120, (R)-1-(4-(7-(3-hydroxynaphthalen-1-yl)-2-((1-(pyrrolidin-1-yl)propan-2-yl)oxy)-5,6,7,8-tetrahydropyrido[3,4-d]pyrimidin-4-yl)piperazin-1-yl)prop-2-en-1-one] | 1 to 1000 nM
C=CC(=O)N1CCN(c2nc(OC[C@@H]3CCCN3C)nc3c2CCN(c2c(F)cccc2C(F)(F)F)C3)CC1CC#N (stereo partly drawn) [Example 275, 2-(1-acryloyl-4-(7-(2-fluoro-6-(trifluoromethyl)phenyl)-2-(((S)-1-methylpyrrolidin-2-yl)methoxy)-5,6,7,8-tetrahydropyrido[3,4-d]pyrimidin-4-yl)piperazin-2-yl)acetonitrile] | 1 to 1000 nM
C=CC(=O)N1CCN(c2nc(OC[C@@H]3CCCN3C)nc3c2CCN(c2ccccc2C(F)(F)F)C3)C[C@@H]1CC#N [Example 237, 2-((S)-1-acryloyl-4-(2-(((S)-1-methylpyrrolidin-2-yl)methoxy)-7-(2-(trifluoromethyl)phenyl)-5,6,7,8-tetrahydropyrido[3,4-d]pyrimidin-4-yl)piperazin-2-yl)acetonitrile 2,2,2-trifluoroacetate] | 1 to 1000 nM
C=CC(=O)N1CCN(c2nc(OC[C@@H]3CCCN3C)nc3c2CCN(c2cccc(C)c2C(F)(F)F)C3)CC1CC#N (stereo partly drawn) [Example 265, 2-(1-acryloyl-4-(7-(3-methyl-2-(trifluoromethyl)phenyl)-2-(((S)-1-methylpyrrolidin-2-yl)methoxy)-5,6,7,8-tetrahydropyrido[3,4-d]pyrimidin-4-yl)piperazin-2-yl)acetonitrile] | 1 to 1000 nM
C=CC(=O)N1CCN(c2nc(OCC(CO)N(C)C)nc3c2CCN(c2cc(O)cc4ccccc24)C3)CC1 (stereo not drawn) [Example 55, 1-(4-(2-(2-(dimethylamino)-3-hydroxypropoxy)-7-(3-hydroxynaphthalen-1-yl)-5,6,7,8-tetrahydropyrido[3,4-d]pyrimidin-4-yl)piperazin-1-yl)prop-2-en-1-one] | 1 to 1000 nM
C=CC(=O)N1CCN(c2nc(OC[C@@H]3CN(C)CCO3)nc3c2CCN(c2cccc4ccccc24)C3)CC1CC#N (stereo partly drawn) [Example 271, 2-(1-acryloyl-4-(2-(((S)-4-methylmorpholin-2-yl)methoxy)-7-(naphthalen-1-yl)-5,6,7,8-tetrahydropyrido[3,4-d]pyrimidin-4-yl)piperazin-2-yl)acetonitrile] | 1 to 1000 nM
C=CC(=O)N1CCN(c2nc(OCCCN3CCCC3)nc3c2CCN(c2cc(O)cc4ccccc24)C3)CC1 [Example 39, 1-(4-(7-(3-hydroxynaphthalen-1-yl)-2-(3-(pyrrolidin-1-yl)propoxy)-5,6,7,8-tetrahydropyrido[3,4-d]pyrimidin-4-yl)piperazin-1-yl)prop-2-en-1-one] | 1 to 1000 nM
